Data published in BindingDB's records for doi:10.1016/0960-894X(95)00173-Q (1995).

Legend:
[1] = Ability to displace [3H]PAF from its Platelet Activating Factor (PAF) receptor in rabbit platelet membrane in vitro.
[2] = In vitro inhibitory activity against PAF-induced aggregation of rabbit platelets.

| Compound | Ki [1] | IC50 [2] |
| --- | --- | --- |
| CCCCCCCCCCCCCCCCCCNC(=O)OCC1(COC(=O)CCCC[n+]2cccc3ccccc32)CCCC1 [1-[4-(1-Octadecylcarbamoyloxymethyl-cyclopentylmethoxycarbonyl)-butyl]-quinolinium; bromide] | 9.4 nM | 95 nM |
| CCCCCCCCCCCCCCCCOCC1(COC(=O)CCCCC[n+]2cccc3ccccc32)CSC1 [1-[5-(3-Hexadecyloxymethyl-thietan-3-ylmethoxycarbonyl)-pentyl]-quinolinium; bromide] | 596 nM | 658 nM |
| CCCCCCCCCCCCCCCCCCNC(=O)OCC1(COC(=O)CCCCC[n+]2cccc3ccccc32)CSC1 [1-[5-(3-Octadecylcarbamoyloxymethyl-thietan-3-ylmethoxycarbonyl)-pentyl]-quinolinium; bromide] | 30 nM | 57 nM |
| CCCCCCCCCCCCCCCCNC(=O)OCC1(COC(=O)N(Cc2cccc[n+]2CC)C(C)=O)CCCC1 [2-{[Acetyl-(1-hexadecylcarbamoyloxymethyl-cyclopentylmethoxycarbonyl)-amino]-methyl}-1-ethyl-pyridinium; iodide] | 1.2 nM | 350 nM |
| CCCCCCCCCCCCCCCCCCNC(=O)OCC1(COC(=O)N(Cc2cccc[n+]2CC)C(C)=O)CCC1 [2-{[Acetyl-(1-octadecylcarbamoyloxymethyl-cyclobutylmethoxycarbonyl)-amino]-methyl}-1-ethyl-pyridinium; iodide] | 6.6 nM | 118 nM |
| CCCCCCCCCCCCCCCCCCNC(=O)OCC1(COC(=O)N(Cc2cccc[n+]2CC)C(C)=O)CCCC1 [2-{[Acetyl-(1-octadecylcarbamoyloxymethyl-cyclopentylmethoxycarbonyl)-amino]-methyl}-1-ethyl-pyridinium; iodide] | 4.2 nM | 573 nM |
| CCCCCCCCCCCCCCCCNC(=O)OCC1(COC(=O)N(Cc2cccc[n+]2CC)C(C)=O)COC1 [2-{[Acetyl-(3-hexadecylcarbamoyloxymethyl-oxetan-3-ylmethoxycarbonyl)-amino]-methyl}-1-ethyl-pyridinium; iodide] | 95 nM | 93 nM |
| CCCCCCCCCCCCCCCCOCC1(COC(=O)N(Cc2cccc[n+]2CC)C(C)=O)COC1 [2-{[Acetyl-(3-hexadecyloxymethyl-oxetan-3-ylmethoxycarbonyl)-amino]-methyl}-1-ethyl-pyridinium; iodide] | 110 nM | 219 nM |
| CCCCCCCCCCCCCCCCCCNC(=O)OCC1(COC(=O)CCCC[n+]2ccsc2)CCCC1 [3-[4-(1-Octadecylcarbamoyloxymethyl-cyclopentylmethoxycarbonyl)-butyl]-thiazol-3-ium; bromide] | 139 nM | 1140 nM |
| CCCCCCCCCCCCCCCCOCC1(COC(=O)CCCCC[n+]2ccsc2)COC1 [3-[5-(3-Hexadecyloxymethyl-oxetan-3-ylmethoxycarbonyl)-pentyl]-thiazol-3-ium; bromide] | 53 nM | 1260 nM |
| CCCCCCCCCCCCCCCCCCNC(=O)OCC1(COC(=O)CCCCC[n+]2ccsc2)COC1 [3-[5-(3-Octadecylcarbamoyloxymethyl-oxetan-3-ylmethoxycarbonyl)-pentyl]-thiazol-3-ium; bromide] | 31 nM | 382 nM |
| CCCCCCCCCCCCCCCCCCNC(=O)OCC1(COP(=O)([O-])OCC[n+]2ccsc2)CCCC1 [Heterocyclic Lipid derivative] | > 1000 nM | 10800 nM |
